Test results from patent publication US20180099931A1 (AbbVie S.à.r.l., priority 2016, published 2018).
Like-named read-outs stand apart in the source and are kept apart here.

Target: T1, F508delCFTR (Homo sapiens, UniProt P13569, DEL508-508)
T1 construct: expressed in transfected cells; host or cells: CFBE41o- human lung-derived epithelial cells (CFBE4lo-F508delCFTR-HRP), doxycycline-inducible
Assay: Cell Surface Expression-Horse Radish Peroxidase (CSE-HRP) Assay;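 as to Maximum % activity (with co-corrector): co-corrector and positive control are both the same reference corrector at 2 µM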;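 as to Maximum % activity (without co-corrector): percent of the 2 µM on-plate positive control corrector response above DMSO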
Type: cell-based
Conditions: for Maximum % activity (with co-corrector): with co-corrector (2 μM); for Maximum % activity (with co-corrector) / Emax: maximum at any tested concentration, normalized to on-plate positive control; for Emax: without co-corrector, read-out: Maximum % activity (without co-corrector)

[1] = test compound without co-corrector, read-out: EC50 (without co-corrector)
[2] = with co-corrector (2 μM of 3-[(2R,4R)-4-({[1-(2,2-difluoro-1,3-benzodioxol-5-yl)cyclopropyl]carbonyl}amino)-7-methoxy-3,4-dihydro-2H-chromen-2-yl]benzoic acid), read-out: EC50 (with co-corrector)

T1 sequence (P13569 with tags, fused parts or gaps DEL508-508): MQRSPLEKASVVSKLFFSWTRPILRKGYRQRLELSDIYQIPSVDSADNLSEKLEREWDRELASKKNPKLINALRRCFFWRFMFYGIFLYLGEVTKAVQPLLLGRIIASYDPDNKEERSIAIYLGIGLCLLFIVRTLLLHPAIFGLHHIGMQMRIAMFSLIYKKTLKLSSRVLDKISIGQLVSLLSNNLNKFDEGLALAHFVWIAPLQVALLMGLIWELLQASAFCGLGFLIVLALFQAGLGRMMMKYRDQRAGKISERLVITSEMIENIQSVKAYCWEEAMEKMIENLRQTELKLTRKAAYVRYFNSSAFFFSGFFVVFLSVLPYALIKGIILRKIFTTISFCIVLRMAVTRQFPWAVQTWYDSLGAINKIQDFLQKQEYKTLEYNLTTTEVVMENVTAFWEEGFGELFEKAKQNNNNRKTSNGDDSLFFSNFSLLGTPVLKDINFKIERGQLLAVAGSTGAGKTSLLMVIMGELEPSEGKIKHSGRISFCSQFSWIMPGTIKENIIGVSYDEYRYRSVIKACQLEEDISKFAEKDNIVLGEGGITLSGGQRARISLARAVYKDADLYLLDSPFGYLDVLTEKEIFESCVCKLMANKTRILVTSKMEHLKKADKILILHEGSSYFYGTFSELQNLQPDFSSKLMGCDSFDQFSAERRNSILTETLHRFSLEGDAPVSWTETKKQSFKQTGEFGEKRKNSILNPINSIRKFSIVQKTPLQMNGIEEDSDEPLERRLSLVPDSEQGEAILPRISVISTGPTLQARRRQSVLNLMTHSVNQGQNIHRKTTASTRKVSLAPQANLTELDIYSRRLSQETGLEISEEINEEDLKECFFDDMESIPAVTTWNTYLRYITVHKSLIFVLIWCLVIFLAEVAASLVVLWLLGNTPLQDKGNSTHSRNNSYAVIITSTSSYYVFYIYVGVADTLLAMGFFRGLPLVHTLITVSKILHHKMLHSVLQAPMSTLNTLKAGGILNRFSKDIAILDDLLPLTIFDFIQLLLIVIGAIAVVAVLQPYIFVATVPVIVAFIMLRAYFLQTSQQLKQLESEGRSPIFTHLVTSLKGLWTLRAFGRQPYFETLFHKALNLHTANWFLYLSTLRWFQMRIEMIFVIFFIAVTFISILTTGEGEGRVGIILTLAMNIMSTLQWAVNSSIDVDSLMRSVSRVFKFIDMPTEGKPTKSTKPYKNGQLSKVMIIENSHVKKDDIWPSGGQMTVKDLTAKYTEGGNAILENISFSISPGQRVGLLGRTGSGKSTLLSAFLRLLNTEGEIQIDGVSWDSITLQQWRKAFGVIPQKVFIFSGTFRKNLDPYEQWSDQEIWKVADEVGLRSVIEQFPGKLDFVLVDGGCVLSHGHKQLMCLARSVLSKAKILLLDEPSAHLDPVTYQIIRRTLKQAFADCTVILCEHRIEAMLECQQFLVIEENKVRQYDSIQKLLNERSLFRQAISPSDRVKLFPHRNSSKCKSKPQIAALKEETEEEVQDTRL

| Compound | EC50 [1] [µM] | EC50 [2] [µM] | Maximum % activity (with co-corrector) | Emax [%] |
| --- | --- | --- | --- | --- |
| COc1ncc(C2CC2)cc1CN[C@H]1[C@H](C(C)(C)C)[C@@H](C(=O)O)N(C(=O)C2CCCCC2)[C@H]1c1ccccc1C [Example 105, (2S,3S,4S,5S)-3-tert-butyl-1-(cyclohexanecarbonyl)-4-{[(5-cyclopropyl-2-methoxypyridin-3-yl)methyl]amino}-5-(2-methylphenyl)pyrrolidine-2-carboxylic acid] | 1 to 10 | < 1 | +++ (≥350) | > 200 |
| COc1ncc(C2CCC2)cc1CN[C@H]1[C@H](C(C)(C)C)[C@@H](C(=O)O)N(C(=O)[C@@H]2CCCO2)[C@H]1c1ccccc1Br [Example 106, (2S,3S,4S,5S)-5-(2-bromophenyl)-3-tert-butyl-4-{[(5-cyclobutyl-2-methoxypyridin-3-yl)methyl]amino}-1-[(2S)-oxolane-2-carbonyl]pyrrolidine-2-carboxylic acid] | 1 to 10 | 1 to 10 | +++ (≥350) | 100 to 200 |
| COc1ncc(C2CCC2)cc1CN[C@H]1[C@H](C(C)(C)C)[C@@H](C(=O)O)N(C(=O)[C@@H]2CCCO2)[C@H]1c1ccccc1C1CC1 [Example 107, (2S,3S,4S,5S)-3-tert-butyl-4-{[(5-cyclobutyl-2-methoxypyridin-3-yl)methyl]amino}-5-(2-cyclopropylphenyl)-1-[(2S)-oxolane-2-carbonyl]pyrrolidine-2-carboxylic acid] | 1 to 10 | < 1 | +++ (≥350) | > 200 |
| COc1ccc(C(C)(C)C)cc1CN[C@H]1[C@H](C(C)(C)C)[C@@H](C(=O)O)N(C(=O)[C@@H]2CCCO2)[C@H]1c1ccccc1C1CC1 [Example 108, (2S,3S,4S,5S)-3-tert-butyl-4-{[(5-tert-butyl-2-methoxyphenyl)methyl]amino}-5-(2-cyclopropylphenyl)-1-[(2S)-oxolane-2-carbonyl]pyrrolidine-2-carboxylic acid] | 1 to 10 | 1 to 10 | +++ (≥350) | > 200 |
| COc1ccc(C2(C)CCC2)cc1CN[C@H]1[C@H](C(C)(C)C)[C@@H](C(=O)O)N(C(=O)[C@@H]2CCCCO2)[C@H]1c1ccccc1C [Example 109, (2S,3S,4S,5S)-3-tert-butyl-4-({[2-methoxy-5-(1-methylcyclobutyl)phenyl]methyl}amino)-5-(2-methylphenyl)-1-[(2S)-oxane-2-carbonyl]pyrrolidine-2-carboxylic acid] | < 1 | < 1 | +++ (≥350) | > 200 |
| COc1ccc(C(C)(C)C)cc1CN[C@H]1[C@H](C(C)(C)C)[C@@H](C(=O)O)N(C(=O)[C@@H]2CCCCO2)[C@H]1c1ccccc1C [Example 110, (2S,3S,4S,5S)-3-tert-butyl-4-{[(5-tert-butyl-2-methoxyphenyl)methyl]amino}-5-(2-methylphenyl)-1-[(2S)-oxane-2-carbonyl]pyrrolidine-2-carboxylic acid] | 1 to 10 | < 1 | +++ (≥350) | > 200 |
| CCc1ccccc1[C@H]1[C@@H](NCc2cc(C3CCC3)cnc2OC)[C@H](C(C)(C)C)[C@@H](C(=O)O)N1C(=O)[C@@H]1CCCO1 [Example 111, (2S,3S,4S,5S)-3-tert-butyl-4-{[(5-cyclobutyl-2-methoxypyridin-3-yl)methyl]amino}-5-(2-ethylphenyl)-1-[(2S)-oxolane-2-carbonyl]pyrrolidine-2-carboxylic acid] | 1 to 10 | 1 to 10 | +++ (≥350) | > 200 |
| COc1ccc(C2(C)CCC2)cc1CN[C@H]1[C@H](C(C)(C)C)[C@@H](C(=O)O)N(C(=O)[C@@H]2CCCO2)[C@H]1c1ccccc1C1CC1 [Example 112, (2S,3S,4S,5S)-3-tert-butyl-5-(2-cyclopropylphenyl)-4-({[2-methoxy-5-(1-methylcyclobutyl)phenyl]methyl}amino)-1-[(2S)-oxolane-2-carbonyl]pyrrolidine-2-carboxylic acid] | 1 to 10 | < 1 | +++ (≥350) | > 200 |
| COc1ccc(C(C)(C)C)cc1CN[C@H]1[C@H](C(C)(C)C)[C@@H](C(=O)O)N(C(=O)[C@@H]2CCCCO2)[C@H]1c1ccccc1Br [Example 113, (2S,3S,4S,5S)-5-(2-bromophenyl)-3-tert-butyl-4-{[(5-tert-butyl-2-methoxyphenyl)methyl]amino}-1-[(2S)-oxane-2-carbonyl]pyrrolidine-2-carboxylic acid] | 1 to 10 | < 1 | +++ (≥350) | > 200 |
| COc1ncc(C(F)(F)F)cc1N[C@H]1[C@H](C(C)(C)C)[C@@H](C(=O)O)N(C(=O)C2CCCCC2)[C@H]1c1ccccc1 [Example 114, (2S,3S,4S,5S)-3-tert-butyl-1-(cyclohexanecarbonyl)-4-{[2-methoxy-5-(trifluoromethyl)pyridin-3-yl]amino}-5-phenylpyrrolidine-2-carboxylic acid] | < 1 | < 1 | +++ (≥350) | < 100 |
| COc1ncc(C2CC2)cc1CN[C@H]1[C@H](C(C)(C)C)[C@@H](C(=O)O)N(C(=O)[C@@H]2CCCCO2)[C@H]1c1ccccc1C(C)C [Example 115, (2S,3S,4S,5S)-3-tert-butyl-4-{[(5-cyclopropyl-2-methoxypyridin-3-yl)methyl]amino}-1-[(2S)-oxane-2-carbonyl]-5-[2-(propan-2-yl)phenyl]pyrrolidine-2-carboxylic acid] | 1 to 10 | < 1 | +++ (≥350) | > 200 |
| COc1ncc(C(F)(F)F)cc1CN[C@H]1[C@H](C(C)(C)C)[C@@H](C(=O)O)N(C(=O)[C@@H]2CCCCO2)[C@H]1c1ccccc1C1CC1 [Example 116, (2S,3S,4S,5S)-3-tert-butyl-5-(2-cyclopropylphenyl)-4-({[2-methoxy-5-(trifluoromethyl)pyridin-3-yl]methyl}amino)-1-[(2S)-oxane-2-carbonyl]pyrrolidine-2-carboxylic acid] | 1 to 10 | < 1 | +++ (≥350) | > 200 |
| COc1ncc(C2CCC2)cc1CN[C@H]1[C@H](C(C)(C)C)[C@@H](C(=O)O)N(C(=O)C2CCCCC2)[C@H]1c1ccccc1C(C)C [Example 117, (2S,3S,4S,5S)-3-tert-butyl-4-{[(5-cyclobutyl-2-methoxypyridin-3-yl)methyl]amino}-1-(cyclohexanecarbonyl)-5-[2-(propan-2-yl)phenyl]pyrrolidine-2-carboxylic acid] | < 1 | < 1 | +++ (≥350) | > 200 |
| COc1ncc(C(F)(F)F)cc1CN[C@H]1[C@H](C(C)(C)C)[C@@H](C(=O)O)N(C(=O)C2CCCCC2)[C@H]1c1cccc2c1OC(C)(C)C2 [Example 118, (2S,3S,4S,5S)-3-tert-butyl-1-(cyclohexanecarbonyl)-5-(2,2-dimethyl-2,3-dihydro-1-benzofuran-7-yl)-4-({[2-methoxy-5-(trifluoromethyl)pyridin-3-yl]methyl}amino)pyrrolidine-2-carboxylic acid] | < 1 | < 1 | +++ (≥350) | 100 to 200 |
